Laboratory results from patent US20250368606A1, “CRYSTALLINE FORMS AND SALT FORMS OF A KINASE INHIBITOR” (Exelixis, Inc., priority 2021, published 2025).

Experiments:
Format in all cases: physicochemical
[1] = Visual (aqueous) solubility estimation; settings: water, thermodynamic from solid, visual observation
Experimental: Solubility Estimation: Aliquots of various solvents were added to measured amounts of Compound 1 with agitation (typically sonication) at stated temperatures until complete dissolution was achieved, as judged by visual observation.
Aqueous Solubility Estimation: Aliquots of water were added to measured amounts of various Compound 1 salts with sonication.

[2] = Physical stability (form conversion) of solid forms
[3] = Desolvation / drying attempts at elevated temperature, solids analysed by XRPD
Experimental: Vacuum Oven Desolvation: Salts of Compound 1 that were determined to be solvates by various analytical methods underwent an attempted desolvation. […] Samples were analyzed by XRPD and/or TGA for determination of desolvation success.

[4] = dried under vacuum at 80° C. for 1 day

CNC(=O)c1cc2c(Oc3ccc(NC(=O)C4(C(=O)Nc5ccc(F)cc5)CC4)cc3)ccnc2cc1OC [Amorphous Compound 1, N-(4-fluorophenyl)-N-(4-((7-methoxy-6-(methylcarbamoyl)quinolin-4-yl)oxy)phenyl)cyclopropane-1,1-dicarboxamide]
solubility [1]: < 250 µg/mL | physical stability: resulting form on exposure to elevated temperature ([2]; elevated temperature): Material K | physical stability: resulting form on contact with diethyl ether ([2]; immediately on contact with diethyl ether): crystallized to a mixture of Forms X and K

CNC(=O)c1cc2c(Oc3ccc(NC(=O)C4(C(=O)Nc5ccc(F)cc5)CC4)cc3)ccnc2cc1OC [Compound 1 Form S]
physical stability of the solvate ([2]; likely NMP solvate, only obtained as a mixture with Form A): readily converts to Form A

CNC(=O)c1cc2c(Oc3ccc(NC(=O)C4(C(=O)Nc5ccc(F)cc5)CC4)cc3)ccnc2cc1OC [Compound 1 Hemifumarate Form C]
form of post-drying solids (XRPD) [3, 4]: a mixture of Hemifumarate Form B, with trace Compound 1 free base Form A, and a few additional peaks

CNC(=O)c1cc2c(Oc3ccc(NC(=O)C4(C(=O)Nc5ccc(F)cc5)CC4)cc3)ccnc2cc1OC [Compound 1 Hemifumarate Form D]
form of post-drying solids (XRPD) [3, 4]: a mixture of Compound 1 free base Form A and Compound 1 Hemifumarate Form B

CNC(=O)c1cc2c(Oc3ccc(NC(=O)C4(C(=O)Nc5ccc(F)cc5)CC4)cc3)ccnc2cc1OC [Form R]
XRPD Results after desolvation attempt ([3]; 105-120° C. vacuum, 2 hours): Form K | XRPD Results after desolvation attempt ([3]; 110° C., 1 hour): Form K + X

CNC(=O)c1cc2c(Oc3ccc(NC(=O)C4(C(=O)Nc5ccc(F)cc5)CC4)cc3)ccnc2cc1OC [Form U]
XRPD Results after desolvation attempt ([3]; 60° C.-72° C. vacuum 6 days): Form T + Form U | XRPD Results after desolvation attempt ([3]; 70° C. vacuum 3 days): Form U + Form T | XRPD Results after desolvation attempt ([3]; 105-120° C. vacuum, 2 hours): Form T (blue grey) | XRPD Results after desolvation attempt ([3]; 170° C. 15 minutes): Form T + Form A (grey brown)

CNC(=O)c1cc2c(Oc3ccc(NC(=O)C4(C(=O)Nc5ccc(F)cc5)CC4)cc3)ccnc2cc1OC [Hemifumarate Form E]
form of post-drying solids (XRPD) ([3]; dried under vacuum at 72° C. for 1 day): unique disordered crystalline pattern

CNC(=O)c1cc2c(Oc3ccc(NC(=O)C4(C(=O)Nc5ccc(F)cc5)CC4)cc3)ccnc2cc1OC [Hemifumarate Form F]
form of post-drying solids (XRPD) ([3]; post-drying sample further dried under vacuum at 88° C. for 1 day): maintained the same form

CNC(=O)c1cc2c(Oc3ccc(NC(=O)C4(C(=O)Nc5ccc(F)cc5)CC4)cc3)ccnc2cc1OC [Napsylate Form A]
physical stability under drying conditions (XRPD) ([3]; 48° C. under vacuum for approximately 3 days): XRPD peaks attributed to Napsylate Form B increased in intensity | physical stability under drying conditions (XRPD) ([3]; 120° C. for 30 minutes): A mixture of Napsylate Form B and Form C
